The record followed here is PubChem BioAssay (NCI).

Test systems include EKVX NSCLC; T-47D breast; A549 NSCLC; HS 578T breast; NCI-H23 lung; KM12 colon; TK-10 renal; HCC-2998 colon; SW-620 colon; M14 melanoma.
Common to all, as to experiment: growth of human tumour cells (NCI), 48 h

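48-hour exposure; five concentrations; linearly interpolated endpoints. The concentration for full growth arrest is given as TGI.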

In the case of `O=C(Nc1ccccc1)N1CCN(C(=O)Nc2ccccc2)C1=S`, the TGI with EKVX NSCLC was more than 100 µM; in the experiment on T-47D breast, more than 100 µM; in the experiment with A549 NSCLC, more than 100 µM; in the experiment on HS 578T breast it was more than 100 µM; in the experiment on NCI-H23 lung it was 55.4 µM; in the experiment with KM12 colon, more than 100 µM. Further, the TGI with TK-10 renal, with HCC-2998 colon, in the experiment with SW-620 colon and in the experiment with M14 melanoma was more than 100 µM throughout.
On to `COC1/C=C/C(C)C(O)CC(O)/C=C/C(C)C(C(C)C(OC)C(C)CCC(=O)C(C)C(C/C=C/N(C)C=O)OC)OC(=O)/C=C/C=C(\C)CC(OC)CC2=CC(=O)O[C@@H](C(C)C(OC)C1)[C@H]2O` (stereo partly specified), for which the TGI in the experiment with EKVX NSCLC came to 0.266 µM; in the experiment on T-47D breast, 1.28 µM; with A549 NSCLC it was 0.235 µM; in the experiment with HS 578T breast it was 0.0493 µM; with NCI-H23 lung, 0.0437 µM; in the experiment on KM12 colon it was 1.15 µM. For the same compound, the TGI was 0.0551 µM in the experiment on TK-10 renal, 0.267 µM in the experiment with SW-620 colon and less than 0.005 µM with M14 melanoma.
For `Cc1nc(NC(C)(CO)CO)nc(N/N=C/c2ccc(Cl)cc2)c1C(=O)Nc1ccc(Cl)cc1`, the TGI with EKVX NSCLC, in the experiment with T-47D breast, in the experiment on A549 NSCLC, in the experiment with HS 578T breast, with NCI-H23 lung and in the experiment with KM12 colon was more than 100 µM in each case. The TGI in the experiment on TK-10 renal, with HCC-2998 colon, in the experiment with SW-620 colon and in the experiment on M14 melanoma was more than 100 µM each time.
As to `N#Cc1c(-c2ccc([N+](=O)[O-])cc2)c(C#N)c(=O)n(NS(=O)(=O)c2ccccc2)c1S`, the TGI was more than 100 µM in the experiment on EKVX NSCLC; more than 100 µM in the experiment with A549 NSCLC; 58.5 µM in the experiment with HS 578T breast; more than 100 µM in the experiment on KM12 colon; more than 100 µM with TK-10 renal; more than 100 µM with HCC-2998 colon. For the same compound, the TGI in the experiment on SW-620 colon is 45.7 µM; in the experiment with M14 melanoma it was more than 100 µM.
As for `Nc1c(C(=O)c2ccc(Cl)c(Cl)c2)[nH]c(NCc2ccccc2)c1C(=S)Nc1ccccc1`, the TGI was found to be 29.6 µM in the experiment on EKVX NSCLC; 81.2 µM in the experiment on T-47D breast; 23.3 µM with A549 NSCLC; 41.6 µM with NCI-H23 lung; 10.5 µM in the experiment with KM12 colon; 33.4 µM in the experiment on TK-10 renal. Besides, the results for the TGI with HCC-2998 colon, with SW-620 colon and with M14 melanoma were 3.48 µM, 10.1 µM and 12.6 µM, respectively.
Regarding `CC(=O)C(=Cc1cn(C)c(=O)n(C)c1=O)C(C)=O`, the TGI with EKVX NSCLC is 323 µM; in the experiment with A549 NSCLC, 565 µM; in the experiment on NCI-H23 lung, 194 µM; with KM12 colon it was 189 µM; with HCC-2998 colon, 264 µM; with SW-620 colon, 302 µM.
For the compound `COC1CC(C)(NC(=O)C(F)(F)F)C2OC(c3ccccc3)OCC2O1` (stereo unspecified), the TGI in the experiment on EKVX NSCLC, with T-47D breast, in the experiment on A549 NSCLC, in the experiment with HS 578T breast, with NCI-H23 lung and with KM12 colon was more than 100 µM each time. Also, the TGI with TK-10 renal, in the experiment on SW-620 colon and in the experiment with M14 melanoma was more than 100 µM throughout.
Regarding `CCOP(=O)(/C=C/n1cc(C)c(=O)[nH]c1=O)OCC`, the TGI with EKVX NSCLC, in the experiment with T-47D breast, with A549 NSCLC, in the experiment with NCI-H23 lung, in the experiment on KM12 colon and in the experiment on TK-10 renal was more than 100 µM each time. Besides, the TGI in the experiment on SW-620 colon and in the experiment with M14 melanoma was more than 100 µM throughout.
In the case of `COP(=O)(OC)OCN(C)CC/C=C(\C)CC/C=C(\C)CCC=C(C)C`, the TGI with EKVX NSCLC was found to be 63.3 µM; in the experiment on T-47D breast, 43.9 µM; in the experiment with A549 NSCLC, 40.9 µM; in the experiment with NCI-H23 lung, 34.7 µM; with KM12 colon, 30 µM; in the experiment on TK-10 renal, 21.9 µM. Also, the TGI worked out at 23.8 µM with HCC-2998 colon, 30.4 µM with SW-620 colon and 28 µM in the experiment with M14 melanoma.
`COC(=O)C1=C(CCCCO[Si](C)(C)C(C)(C)C)NC(=O)N2[C@H](CCOCc3ccccc3)CC[C@@H]12`: the TGI in the experiment with EKVX NSCLC, with T-47D breast, in the experiment with A549 NSCLC, in the experiment with NCI-H23 lung, with KM12 colon and with TK-10 renal was more than 100 µM each time. Also, the TGI with HCC-2998 colon and in the experiment on M14 melanoma was more than 100 µM in each case.
For the compound `O=c1c2cc(Br)cc(Br)c2[nH]c(=S)n1-c1ccc(N=Nc2ccc(O)c3cccnc23)cc1`, the TGI with EKVX NSCLC, in the experiment with T-47D breast, with A549 NSCLC, in the experiment with HS 578T breast, in the experiment with KM12 colon and in the experiment on TK-10 renal was more than 100 µM each time. For the same compound, the TGI in the experiment on SW-620 colon and with M14 melanoma was more than 100 µM in each case.
Turning to `CCN1CC2(C)CCC(OC)C34C5CC6CCC(O)(C5C(=O)O6)C(C(O)C23)C14` (stereo unspecified), the TGI in the experiment with EKVX NSCLC, in the experiment with T-47D breast, in the experiment with A549 NSCLC, in the experiment with HS 578T breast, in the experiment on NCI-H23 lung and with KM12 colon was more than 100 µM in each case. Further, the TGI in the experiment with TK-10 renal, in the experiment on SW-620 colon and with M14 melanoma was more than 100 µM in each case.
Consider `C[s+]1c2ccccc2c2ccccc21`, for which the TGI in the experiment with EKVX NSCLC, with A549 NSCLC, with KM12 colon, in the experiment on TK-10 renal, in the experiment on HCC-2998 colon and in the experiment on SW-620 colon was more than 100 µM throughout. Also, in the experiment with M14 melanoma, the TGI is more than 100 µM.
For `C[C@H]1S[C@@H](c2ccc(Cl)cc2Cl)N(NC(=O)c2ccncc2)C1=O`, the TGI in the experiment on T-47D breast, in the experiment with HS 578T breast, in the experiment with NCI-H23 lung, in the experiment on KM12 colon and with M14 melanoma was more than 100 µM in each case.
`CC(C)CCCC(C)[C@H]1CCC(C2C[C@@H](O)[C@@H]3CC(O)[C@@H](O)C[C@]3(CO)C2=O)[C@]1(C)CCO` (stereo partly specified): the TGI is more than 94.9 µM in the experiment on EKVX NSCLC; more than 96.2 µM in the experiment with A549 NSCLC; more than 90.5 µM in the experiment with NCI-H23 lung; 19.6 µM with KM12 colon; 38.4 µM in the experiment with HCC-2998 colon; 52.7 µM with SW-620 colon.
